This note sets out measurements from paper PMC4520450, “Procyanidins Negatively Affect the Activity of the Phosphatases of Regenerating Liver” (PLoS ONE, 2015).

What all share (type): biochemical
In assay [1] the target is T1, PRL-2 (Homo sapiens, UniProt Q12974).
T1 construct: His-TEV (cleaved yes); made in house
T1 sequence (Q12974 1-167): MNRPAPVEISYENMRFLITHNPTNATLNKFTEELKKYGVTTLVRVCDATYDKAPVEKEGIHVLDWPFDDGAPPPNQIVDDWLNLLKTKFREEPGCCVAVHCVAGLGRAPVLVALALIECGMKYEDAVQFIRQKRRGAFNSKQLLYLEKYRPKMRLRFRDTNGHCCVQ
Briefly: DiFMUP phosphatase activity assay for PRLs. The settings on record: 50 nM PRL-2, 30 min preincubation, 25°C, 24 μM DiFMUP; mean ± SEM (n = 3–5); read-out: IC50 (Ki) PRL-2. Here is the method: (§1) Fig 2 Effect of polyphenolic compounds 8 (A), 9 (B), 10 (C) and 11 (D) on the phosphatase activity of PRL-1, PRL-2, PRL-3, PP1, and PP2A. Proteins were incubated for 30 min with 0–1000 μM of the corresponding procyandin 8–11. Phosphatase activity was measured in the presence of DiFMUP at 25°C using the concentration corresponding to the KM of each protein. The KM for PRLs was determined separately (PRL-3 = 21 μM, PRL-2 and PRL-1 = 24 μM). The KM for PP1 (91 μM) and for PP2A (100 μM) was taken from the literature. Protein concentrations are 50 nM for all PRLs and 2 mU for PP1 and 0.05 U for PP2A (see the Experimental Procedures). Phosphatase activity in the absence of inhibitors was set as 100%. Data represent means ± standard errors of the mean (n = 3–5).
(§2) DiFMUP assay for PRLs: In a final reaction volume of 100 μL the PRLs (50 nM final concentration) were incubated with decreasing concentrations of the inhibitory polyphenols for 30 minutes at 25°C. The buffer conditions were 108 mM TrisCl (pH 7.5), Triton 0.05% (v/v), DTT 27.0 mM, NaCl 811 mM. After the incubation time 20 μL DiFMUP (6,8-Difluoro-4-methylumbelliferyl phosphate) was added to reach a final concentration of 21 μM for PRL-3 and 24 μM for PRL-1 and PRL-2. On a Tecan safire2 (Tecan, Salzburg, Austria) plate reader dephosphorylation of the substrate to its fluorescent product was monitored by following the emission at 358 nm with excitation at 452 nm for 20 minutes. All measurements were done in triplicates, and the experiments were repeated at least three times. The slopes of the initial phases were obtained by linear regression of the data points. The normalized reaction rates were plotted versus the log of the inhibitor concentrations and the IC50 values were obtained by fitting the curves using the one site competition model of GraphPad Prism (GraphPad Software, Version 5). KM values were determined by measuring reaction kinetics of substrate dilution series. Initial velocities were plotted against DiFMUP concentration and the data was analyzed by Michaelis-Menten kinetics curve fitting of GraphPad Prism. A final DMSO content of 0.4% was maintained for the monomeric catechins. Due to the high water solubility of the procyanidins DMSO was not required and measurements were done in assay buffer only.

Assay [2] deals with T2, PRL-1 (Homo sapiens, UniProt Q93096).
T2 construct: His-TEV (cleaved yes); made in house
T2 sequence (Q93096 1-173): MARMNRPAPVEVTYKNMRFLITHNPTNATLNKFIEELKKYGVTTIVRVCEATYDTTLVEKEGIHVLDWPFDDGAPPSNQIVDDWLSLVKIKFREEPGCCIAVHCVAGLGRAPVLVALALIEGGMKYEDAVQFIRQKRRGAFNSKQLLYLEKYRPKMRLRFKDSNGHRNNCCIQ
Briefly: DiFMUP phosphatase activity assay for PRLs. The conditions noted are these: for IC50: 50 nM PRL-1, 30 min preincubation, 25°C, 24 μM DiFMUP, mean ± SEM (n = 3–5), read-out: IC50 (Ki) PRL-1. The procedure: as §1, §2

Assay [3] deals with T3, PP2A (Homo sapiens, UniProt P67775).
T3 construct: purified from human red blood cells; purchased Merck Millipore; host or cells: human red blood cells
T3 sequence (P67775 whole entry): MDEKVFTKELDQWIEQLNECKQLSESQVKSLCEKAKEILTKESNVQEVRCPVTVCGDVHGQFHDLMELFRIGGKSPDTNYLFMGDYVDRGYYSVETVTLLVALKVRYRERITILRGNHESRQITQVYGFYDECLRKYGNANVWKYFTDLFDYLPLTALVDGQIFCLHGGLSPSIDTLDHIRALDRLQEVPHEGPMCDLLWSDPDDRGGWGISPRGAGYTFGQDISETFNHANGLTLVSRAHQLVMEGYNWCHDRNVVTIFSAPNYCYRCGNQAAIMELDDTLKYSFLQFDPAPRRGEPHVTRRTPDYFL
T3 sequence (P30153 2-589 partner limits assumed): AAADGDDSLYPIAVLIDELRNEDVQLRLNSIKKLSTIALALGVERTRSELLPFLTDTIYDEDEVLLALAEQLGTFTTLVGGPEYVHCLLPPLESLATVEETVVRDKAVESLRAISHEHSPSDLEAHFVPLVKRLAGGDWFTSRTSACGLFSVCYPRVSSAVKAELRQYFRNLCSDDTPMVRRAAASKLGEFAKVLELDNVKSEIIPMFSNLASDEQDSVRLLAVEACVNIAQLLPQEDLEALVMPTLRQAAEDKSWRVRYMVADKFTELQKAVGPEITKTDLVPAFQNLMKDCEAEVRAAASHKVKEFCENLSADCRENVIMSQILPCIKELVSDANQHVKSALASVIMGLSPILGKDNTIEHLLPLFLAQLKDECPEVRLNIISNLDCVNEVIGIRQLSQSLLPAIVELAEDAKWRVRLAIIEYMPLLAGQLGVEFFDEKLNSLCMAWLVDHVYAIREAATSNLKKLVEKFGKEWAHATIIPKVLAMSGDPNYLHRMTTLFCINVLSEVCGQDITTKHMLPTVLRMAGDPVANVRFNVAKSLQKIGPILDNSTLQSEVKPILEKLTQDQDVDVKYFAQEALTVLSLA
Briefly: DiFMUP assay for PP2A. The settings on record: 0.05 U PP2A, 30 min preincubation, 25°C, no BSA, mean ± SEM (n = 3–5), read-out: IC50 (Ki) PP2A. The procedure:
as §1
BSA, which is usually supplemented to the assay buffer for stabilizing the PPs was however excluded, as BSA is known to form complexes with polyphenolic compounds [40–42] and thus would decrease the concentrations of the inhibitor in the assay. […] In contrast, the phosphatase activity of PP2A was suppressed to a much lesser extent with weak (for trimer 9 and hexamer 11) and strong statistical significance (dimer 8 and tetramer 10). Thus our results corroborate the data reported previously.
Chemicals and vendors were as follows: Synthesis of Procyanidins (dimer to dodecamer) was done as previously reported. EGCG, EGC, ECG and EC were synthesized as previously reported or purchased from Sigma. (+)-Catechin and 3-(4,5-dimethylthiazol-2-yl)-2,5-diphenyltetrazolium bromide (MTT) were obtained from Sigma. 6,8-Difluoro-4-Methylumbelliferyl Phosphate (DiFMUP), propidium iodide and calcein AM were from lifescience technologies. Cell dissociation solution (10X) was purchased from amsbio. PP1c (recombinant from E. coli) was purchased from NewEngland Biolabs and PP2A (purified from human red blood cells, contains different subunits according to manufacturer) from Merck Millipore. Transwell plates (BRANDplates) and insert stripes for the migration assay were purchased from Brand GmbH. Black 96 well plates (96F Nunclon Delta) were purchased from Thermo Scientific. Transparent 96 well assay plates with UV transparent bottom were purchased from Corning Inc. Wound healing experiments were carried out with μ-dish 35 mm culture inserts, which were purchased from Ibidi.
DiFMUP assay for PP2A: In a final reaction volume of 100 μL PP2A (0.05 U final concentration, according to manufacturer’s instructions) were incubated with decreasing concentrations of the inhibitory polyphenols for 30 minutes at 25°C. The assay buffer contained 50 mM TrisCl (pH 7.5), 250 mM NaCl, 0.1 mM EDTA, 1 mM MnCl2, and 2 mM dithiothreitol (DTT). […] Monitoring of the fluorescent dephosphorylation product was monitored and data analyzed as described above.

In assay [4] the target is T4, PRL-3 (Homo sapiens, UniProt O75365).
T4 construct: His-TEV (cleaved yes); made in house
T4 sequence (O75365 whole entry): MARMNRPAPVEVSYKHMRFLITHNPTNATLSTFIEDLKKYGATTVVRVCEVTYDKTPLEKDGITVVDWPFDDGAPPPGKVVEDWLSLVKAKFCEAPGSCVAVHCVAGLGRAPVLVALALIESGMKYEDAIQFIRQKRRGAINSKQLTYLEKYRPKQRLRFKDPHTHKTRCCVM
The assay is described as follows: DiFMUP phosphatase activity assay for PRLs. The settings on record: 50 nM PRL-3, 30 min preincubation, 25°C, 21 μM DiFMUP; mean ± SEM (n = 3–5); read-out: IC50 (Ki) PRL-3. Here is the method: Biochemical phosphatase activity measurements were carried out in the presence of different concentrations of various polyphenols, compounds 1–11 (Fig 1), using recombinant PRL-3 and 6,8-difluoro-4-methylumbelliferyl phosphate (DiFMUP) as a fluorogenic substrate (see the experimental procedures). We observed that the monomeric epicatechins EGC and EC inhibit PRL-3 only weakly, with a slightly better activity of EGC, which bears three hydroxyl groups at the B-ring. […] In general, as a basic structure activity-relationship the following trend was observed: a higher number of hydroxyl groups at the B-ring increased the activity slightly. […] The influence of the stereochemistry at C(2)–C(3) was studied by using GCG (the trans-epimer of EGCG).
as §1, §2

Consider `Oc1cc(O)c2c(c1)O[C@H](c1ccc(O)c(O)c1)[C@@H](O)[C@@H]2c1c(O)cc(O)c2c1O[C@H](c1ccc(O)c(O)c1)[C@@H](O)C2` [Procyanidin B3 (8), Procyanidin B3], for which the IC50 (usually the midpoint of a concentration-inhibition curve) in assay [1] is 103 ± 1.1 µM; in assay [2] it was 3.3 ± 1.2 µM; in assay [3] it was more than 1000 µM; in assay [4], 127 ± 1.5 µM. The “fold higher activity toward PRL-1 compared to PRL-3” value in assay [2] (in vitro, from IC50 values) was found to be 38 fold.
Take `Oc1cc(O)c2c(c1)O[C@H](c1ccc(O)c(O)c1)[C@@H](O)[C@@H]2c1c(O)cc(O)c2c1O[C@H](c1ccc(O)c(O)c1)[C@@H](O)[C@@H]2c1c(O)cc(O)c2c1O[C@H](c1ccc(O)c(O)c1)[C@@H](O)C2` [Procyanidin C2 (9), Procyanidin C2]: the IC50 turned out to be 15.2 ± 1.4 µM in assay [1], 1.8 ± 1.1 µM in assay [2], 213 ± 72 µM in assay [3] and 18.8 ± 4.5 µM in assay [4].
